Among the data in patent US9527838B2, “2-pyridinecarboxamide derivatives, compositions containing such compounds, and methods of treatment” (priority 2012, dated 2016) are Emax and EC50 values, retold here.

The assay deals with Recombinant human liver glucokinase (Homo sapiens (Human), UniProt P35557). The experiment in a line: Glucokinase activation assay (G6PDH-coupled, Thio-NADH absorbance at 405 nm). The assay is classed as biochemical. As to conditions: for EC50: 2.5 mM Glu, 30° C. An excerpt: The glucokinase activity can, for instance, be determined without directly measuring glucose-6-phosphate by measuring the amount of Thio-NADH generated during the production of phosphogluconolactone from glucose-6-phosphate by a reporter enzyme glucose-6-phosphate dehydrogenase.
Chain of Recombinant human liver glucokinase (P35557 other isoform, or with tags, fused parts or gaps): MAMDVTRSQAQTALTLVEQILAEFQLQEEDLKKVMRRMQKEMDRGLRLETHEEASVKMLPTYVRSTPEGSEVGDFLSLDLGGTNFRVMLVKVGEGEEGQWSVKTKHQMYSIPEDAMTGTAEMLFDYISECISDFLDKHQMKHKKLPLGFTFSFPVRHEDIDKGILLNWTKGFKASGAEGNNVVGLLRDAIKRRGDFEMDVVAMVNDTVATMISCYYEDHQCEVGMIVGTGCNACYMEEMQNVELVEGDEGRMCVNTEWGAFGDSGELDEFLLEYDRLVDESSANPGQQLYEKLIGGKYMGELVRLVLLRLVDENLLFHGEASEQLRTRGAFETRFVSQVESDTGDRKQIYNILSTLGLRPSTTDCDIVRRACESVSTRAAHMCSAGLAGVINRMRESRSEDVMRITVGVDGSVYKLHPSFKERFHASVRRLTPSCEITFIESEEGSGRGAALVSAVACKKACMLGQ
To test the exemplified compounds, the following assay was employed. Recombinant human liver glucokinase was expressed as a FLAG fusion protein in E. coli, and purified on […] M2 AFFINITY GEL (Sigma). The assay was carried out at 30° C. in a 96-well plate. In the plate was distributed 69 μl each of assay buffer (25 mM Hepes Buffer: pH=7.2, 2 mM MgCl2, 1 mM ATP, 0.5 mM TNAD, 1 mM dithiothreitol), to which was added 1 μl of a DMSO solution of the compound or DMSO as control. Then, 20 μl of pre-ice-cooled enzyme mixture (FLAG-GK, 20 U/ml G6PDH) was distributed thereto, to which was added 10 μl of 25 mM glucose as substrate to initiate the reaction (final glucose concentration=2.5 mM). After starting the reaction, the absorbance at 405 nm was measured every 30 seconds for 10 minutes to evaluate the compound based on the initial increase for 5 minutes. FLAG-GK was added so that the increase of absorbance after 5 minutes fell between 0.05 to 0.1 in the presence of 1% DMSO.
The OD values of the respective compounds were measured in the respective concentrations, wherein the OD value of DMSO as control is regarded as 100%.

In the case of `Cn1cnnc1Sc1ccc(Sc2ccc(Cl)c(Cl)c2)c(C(=O)Nc2nc(CC(=O)O)c(Cl)s2)n1` [Example 54, {5-Chloro-2-[({3-[(3,4-dichlorophenyl)sulfanyl]-6-[(4-methyl-4H-1,2,4-triazol-3-yl)sulfanyl]pyridin-2-yl}carbonyl)amino]-1,3-thiazol-4-yl}acetic acid], the Emax amounted to 523% and the concentration for a half-maximal effect (EC50) stood at 23.3 nM.
For `COc1ccc(Sc2ccc(Sc3ccccn3)nc2C(=O)Nc2nc(CC(=O)O)c(Cl)s2)cc1` [Example 13, {5-Chloro-2-[({3-[(4-methoxyphenyl)sulfanyl]-6-(pyridin-2-ylsulfanyl)pyridin-2-yl}carbonyl)amino]-1,3-thiazol-4-yl}acetic acid], the Emax was determined as 584% and the half-maximal effective concentration (EC50) stood at 9 nM.
Turning to `O=C(O)Cc1nc(NC(=O)c2nc(Sc3ccc(F)cc3)ccc2Sc2ccc(F)cc2)sc1Cl` [Example 30, {2-[({3,6-Bis[(4-fluorophenyl)sulfanyl]pyridin-2-yl}carbonyl)amino]-5-chloro-1,3-thiazol-4-yl}acetic acid], the Emax came out at 393% and the EC50 was found to be 16.3 nM.
Consider `CCOC(=O)C(C)(C)CSc1cnc(NC(=O)c2nc(Sc3ccccn3)ccc2Sc2ccc(F)cc2)s1` [Example 37, Ethyl 3-({2-[({3-[(4-fluorophenyl)sulfanyl]-6-(pyridin-2-ylsulfanyl)pyridin-2-yl}carbonyl)amino]-1,3-thiazol-5-yl}sulfanyl)-2,2-dimethylpropanoate], for which the Emax is 450% and the EC50 came to 129 nM.
Turning to `CCOP(=O)(Cc1cnc(NC(=O)c2nc(Sc3nncn3C)ccc2Sc2ccc(F)cc2)s1)OCC` [Example 26, Diethyl ({2-[({3-[(4-fluorophenyl)sulfanyl]-6-[(4-methyl-4H-1,2,4-triazol-3-yl)sulfanyl]pyridin-2-yl}carbonyl)amino]-1,3-thiazol-5-yl}methyl)phosphonate], the Emax is 377% and the EC50 was 136 nM.
On to `CCOC(=O)CSc1cnc(NC(=O)c2nc(Sc3nncn3C)ccc2Sc2ccc(Cl)c(Cl)c2)s1` [Example 51, Ethyl ({2-[({3-[(3,4-dichlorophenyl)sulfanyl]-6-[(4-methyl-4H-1,2,4-triazol-3-yl)sulfanyl]pyridin-2-yl}carbonyl)amino]-1,3-thiazol-5-yl}sulfanyl)acetate], for which the Emax was 479% and the 50% effective concentration (EC50) was 6.2 nM.
On to `CCOC(=O)Cc1nc(NC(=O)c2nc(Sc3ccccn3)ccc2Sc2ccc(OC)cc2)sc1Cl` [Example 12], for which the Emax amounted to 427% and the EC50 was 47.6 nM.
`CC(C)(CSc1cnc(NC(=O)c2nc(Sc3ccccn3)ccc2Sc2ccc(F)cc2)s1)C(=O)O` [Example 38, 3-({2-[({3-[(4-Fluorophenyl)sulfanyl]-6-(pyridin-2-ylsulfanyl)pyridin-2-yl}carbonyl)amino]-1,3-thiazol-5-yl}sulfanyl)-2,2-dimethylpropanoic acid]: the Emax came out at 550% and the EC50 was 32 nM.
For `Cn1cnnc1Sc1ccc(Sc2ccc(F)cc2)c(C(=O)Nc2ncc(SCC(=O)O)s2)n1` [Example 19, ({2-[({3-[(4-Fluorophenyl)sulfanyl]-6-[(4-methyl-4H-1,2,4-triazol-3-yl)sulfanyl]pyridin-2-yl}carbonyl)amino]-1,3-thiazol-5-yl}sulfanyl)acetic acid], the Emax is 426% and the EC50 stood at 23.1 nM.
As to `Cn1cnnc1Sc1ccc(Sc2ccc(F)cc2)c(C(=O)Nc2nc(CC(=O)O)c(Cl)s2)n1` [Example 25, {5-Chloro-2-[({3-[(4-fluorophenyl)sulfanyl]-6-[(4-methyl-4H-1,2,4-triazol-3-yl)sulfanyl]pyridin-2-yl}carbonyl)amino]-1,3-thiazol-4-yl}acetic acid], the Emax was 525% and the EC50 was determined as 18.6 nM.
On to `CCOC(=O)C(C)(C)CSc1cnc(NC(=O)c2nc(Sc3nncn3C)ccc2Sc2ccc(F)cc2)s1` [Example 20], for which the Emax amounted to 460%.
As for `Cn1cnnc1Sc1ccc(Sc2ccc(C(F)(F)F)cc2)c(C(=O)Nc2ncc(SCC(=O)O)s2)n1` [Example 44, [(2-{[(6-[(4-Methyl-4H-1,2,4-triazol-3-yl)sulfanyl]-3-{[4-(trifluoromethyl)phenyl]sulfanyl}pyridin-2-yl)carbonyl]amino}-1,3-thiazol-5-yl)sulfanyl]acetic acid], the maximal effect (Emax) came to 349% and the half-maximal effective concentration (EC50) is 33.7 nM.
Regarding `COC(=O)CCc1cnc(NC(=O)c2nc(Sc3nncn3C)ccc2Sc2ccc(C(F)(F)F)cc2)s1` [Example 48, Methyl 3-(2-{[(6-[(4-methyl-4H-1,2,4-triazol-3-yl)sulfanyl]-3-{[4-(trifluoromethyl)phenyl]sulfanyl}pyridin-2-yl)carbonyl]amino}-1,3-thiazol-5-yl)propanoate], the Emax amounted to 428% and the EC50 came out at 71.8 nM.
In the case of `COC(=O)CCc1cnc(NC(=O)c2nc(Sc3ccccn3)ccc2Sc2ccc(OC)cc2)s1` [Example 14, Methyl 3-{2-[({3-[(4-methoxyphenyl)sulfanyl]-6-(pyridin-2-ylsulfanyl)pyridin-2-yl}carbonyl)amino]-1,3-thiazol-5-yl}propanoate], the Emax turned out to be 486% and the EC50 is 290 nM.
On to `COc1ccc(Sc2ccc(Sc3ccccn3)nc2C(=O)Nc2ncc(CCC(=O)O)s2)cc1` [Example 15, 3-{2-[({3-[(4-Methoxyphenyl)sulfanyl]-6-(pyridin-2-ylsulfanyl)pyridin-2-yl}carbonyl)amino]-1,3-thiazol-5-yl}propanoic acid], for which the Emax amounted to 645% and the EC50 came out at 140 nM.
In the case of `CCOC(=O)Cc1csc(NC(=O)c2nc(Sc3ccccn3)ccc2Sc2ccc(OC)cc2)n1` [Example 16, Ethyl {2-[({3-[(4-methoxyphenyl)sulfanyl]-6-(pyridin-2-ylsulfanyl)pyridin-2-yl}carbonyl)amino]-1,3-thiazol-4-yl}acetate], the Emax was 524% and the half-maximal effective concentration (EC50) worked out at 275 nM.
For the compound `COC(=O)CCc1cnc(NC(=O)c2nc(Sc3ccccn3)ccc2Sc2ccc(F)cc2)s1` [Example 39, Methyl 3-{2-[({3-[(4-fluorophenyl)sulfanyl]-6-(pyridin-2-ylsulfanyl)pyridin-2-yl}carbonyl)amino]-1,3-thiazol-5-yl}propanoate], the Emax came to 468% and the EC50 worked out at 726 nM.

What is called Emax is the greatest response seen or fitted, relative to the assay's reference. For orientation: EC50 means the concentration needed to bring the measured effect to its halfway point.
